Assay results reported in US10266493B2, “Thioacetate compounds, compositions and methods of use” (Ardea Biosciences, Inc., priority 2010, dated 2019).

Target: URAT1 (Homo sapiens, UniProt Q96S37)
Experiment: URAT1-model assay: 14C-uric acid transport in HEK293/URAT1-model cells
Assay type: cell-based
Details: HEK293 cells transfected with model URAT1 construct; 14C-uric acid uptake, 10 minutes at room temperature; read-out: URAT1 EC50 Activity Ranking
Experimental: Transfections of HEK293 cells with a model URAT1 construct was performed using L2000 transfection reagent (Invitrogen) as described by the manufacturer. After 24 h the transfected cells were split into 10 cm tissue culture plates and grown for 1 day after which the medium was replaced with fresh growth medium containing G418 (Gibco) at 0.5 mg/ml final concentration. Drug-resistant colonies were selected after approximately 8 days and then tested for ^14C-uric acid transport activity. The HEK293/URAT1-model cells are plated on Poly-D-Lysine Coated 96-well Plates at a density of 125,000 cells per well.
Cells were grown overnight (20-26 hours) at 37° C. in an incubator. […] Plates were incubated at room temperature for 10 minutes then washed 3 times with 50 μl Wash Buffer and 3 times with 250 μl Wash Buffer. Microscint 20 Scintillation Fluid was added and plates were incubated overnight at room temperature to equilibrate. Plates are then read on the TopCount Plate Reader and an EC50 value generated.

Sequence of URAT1 (Q96S37 whole entry, looked up): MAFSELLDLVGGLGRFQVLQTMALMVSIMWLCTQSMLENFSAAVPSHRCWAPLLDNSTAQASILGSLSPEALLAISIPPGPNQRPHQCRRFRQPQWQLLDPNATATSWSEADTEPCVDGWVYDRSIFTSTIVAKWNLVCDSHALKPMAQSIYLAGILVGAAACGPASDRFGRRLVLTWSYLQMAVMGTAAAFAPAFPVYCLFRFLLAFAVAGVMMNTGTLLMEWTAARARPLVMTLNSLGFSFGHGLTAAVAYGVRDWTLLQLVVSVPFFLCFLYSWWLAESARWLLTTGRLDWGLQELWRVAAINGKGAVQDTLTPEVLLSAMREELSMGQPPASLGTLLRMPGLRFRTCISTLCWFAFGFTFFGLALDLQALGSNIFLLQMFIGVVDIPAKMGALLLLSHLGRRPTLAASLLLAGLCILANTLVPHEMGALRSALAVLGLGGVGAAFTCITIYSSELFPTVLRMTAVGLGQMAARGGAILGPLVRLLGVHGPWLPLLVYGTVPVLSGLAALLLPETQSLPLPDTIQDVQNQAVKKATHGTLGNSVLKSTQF

SMILES	EC50 [µM]
N#Cc1ccc(-c2cnccc2SC(F)(F)C(=O)O)c2ccccc12 [Example 2FF]	0.5 to 10
N#Cc1ccc(-c2cnccc2SCC(=O)O)c2ccccc12 [Example 2B]	0.5 to 10
Cc1ccc(-c2cnccc2SC(C)(C)C(=O)O)cn1 [Example 2LL]	0.5 to 10
CC(C)(Sc1ccncc1-c1ccc2c(c1)OCCO2)C(=O)O [Example 2I]	0.5 to 10
COc1ncc(-c2cnccc2SC(C)(C)C(=O)O)cn1 [Example 2HH]	0.5 to 10
CC(C)(Sc1ccncc1-c1ccc(C(=O)O)cc1F)C(=O)O [Example 2HHH]	0.5 to 10
CC(C)(Sc1ccncc1-c1cc2ccccc2[nH]1)C(=O)O [Example 2G]	0.5 to 10
CC(C)(Sc1ccncc1-c1ccc2c(c1)OCO2)C(=O)O [Example 2E]	0.5 to 10
CC(C)(Sc1ccncc1-c1cccc2cnccc12)C(=O)O [Example 2L]	0.5 to 10

Further lines, results first:

EC50 [µM]	SMILES
0.5 to 10	Cn1cc(-c2cnccc2SC(C)(C)C(=O)O)cn1 [Example 2QQ]
0.5 to 10	CN(C)c1ccc(-c2cnccc2SC(C)(C)C(=O)O)cc1 [Example 2OO]
0.5 to 10	N#Cc1ccc(-c2cccnc2SCC(=O)O)c2ccccc12 [Example 4B]
0.5 to 10	CC(C)(Sc1ncncc1-c1ccc(C#N)c2ccccc12)C(=O)O [Example 6B, 2-(5-(4-cyanonaphthalen-1-yl)pyrimidin-4-ylthio)-2-methylpropanoic Acid]
0.5 to 10	CC(C)(Sc1ccncc1-c1ccc(CC(N)=O)cc1)C(=O)O [Example 2SS]
0.5 to 10	CCOc1ccc2cc(-c3cnccc3SC(C)(C)C(=O)O)ccc2c1 [Example 2Y]
0.5 to 10	CC(C)(Sc1ccncc1-c1ccc(N)cc1)C(=O)O [Example 2YY]
0.5 to 10	CC(C)(Sc1ccncc1-c1cccnc1)C(=O)O [Example 2M]
0.5 to 10	COc1ccc2cc(-c3cnccc3SC(C)(C)C(=O)O)ccc2c1 [Example 2V]
0.5 to 10	CC(C)(Sc1ccncc1-c1ccc(CC#N)cc1)C(=O)O [Example 2RR]
0.5 to 10	CC(C)(Sc1ccncc1-c1ccc2ccccc2c1)C(=O)O [Example 2Z]
0.5 to 10	CC(C)(Sc1ccncc1-c1ccccc1)C(=O)O [Example 2R]
